pIC50: −log10 of the molar value.

One data set has as its system AR 1.0 cells. Description: Drug accumulation assay (tritiated daunorubicin) in MDR resistant AR 1.0 cells. The data set is classed as cell-based. The conditions noted are these: Mus musculus, 1 h, DNR 2 μM, 100% = accumulation with 100 μM Verapamil, read-out: MAX accumulation (% 100 μm VRP). As for the experimental part: The EMT6 mouse mammary carcinoma cell line and the MDR resistant subline AR 1.0 were cultured in RPMI 1640 medium containing 10% foetal calf serum and 2 mM glutamine at 37° C. in 5% CO2 . Cells were passaged between 1 in 200 and 1 in 2000 in the case of the parental cell line and between 1 in 20 and 1 in 200 in the case of the MDR resistant subline, after trypsinisation (0.25% trypsin, 0.2 gl^-1, EDTA).
AR 1.0 cells were seeded into 96 well opaque culture plates (Canberra Packard). The assay medium contained a mixture of tritiated Daunorubicin (DNR), a cytotoxic agent, and unlabelled DNR (0.25μ Ci/ml; 2 μM). Compounds of formula A were serially diluted in assay medium over a range of concentrations from 100 nM to 100 μM. The cells were incubated at 37° C. for 1 hr before washing and counting of cell associated radioactivity. Each assay included a titration of the known resistance modifying agent Verapamil as positive control. Results were expressed as % maximum accumulation where 100% accumulation is that observed in the presence of 100 μM Verapamil.
`COc1ccc(/C=c2\nc(OCC3CC3)/c(=C/c3ccccc3)n(C)c2=O)cc1` [Compound 1745, (3Z,6Z)-6-Benzylidene-5-cyclopropylmethoxy-3-(4-methoxybenzylidene)-1-methyl-3,6-dihydro-2-pyrazinone]: the Emax was 35%.
Consider `CC(C)COc1n/c(=C\c2ccccc2)c(=O)n(C)/c1=C\c1ccccc1` [Compound 1821, (3Z,6Z)-3,6-Dibenzylidene-5-isobutoxy-1-methyl-3,6-dihydro-2-pyrazinone], for which the Emax came to 35%.
As for `Cn1c(=O)/c(=C/c2ccccc2)nc(OCC2CCCCC2)/c1=C/c1ccccc1` [Compound 1780], the Emax turned out to be 20%.
`O=c1/c(=C/c2ccccc2)n(Cc2ccccc2)c(=O)/c(=C/c2ccccc2)n1Cc1ccccc1` [Compound 1906, (3Z,6Z)-1,4-Dibenzyl-3,6-dibenzylidene-2,5-piperazinedione]: the Emax came to 34%.
Same read-out and setting: for `C=CCCOc1n/c(=C\c2ccccc2)c(=O)n(C)/c1=C\c1ccccc1` [Compound 1826, (3Z,6Z)-3,6-Dibenzylidene-5-(3-butenyloxy)-1-methyl-3,6-dihydro-2-pyrazinone] the value was 40%; for `CC(C)Oc1n/c(=C\c2ccccc2)c(=O)n(C)/c1=C\c1ccccc1` [Compound 1819, (3Z,6Z)-3,6-Dibenzylidene-5-isopropoxy-1-methyl-3,6-dihydro-2-pyrazinone], 23%.
Still for that read-out and setting: under `Cn1c(=O)/c(=C/c2ccccc2)nc(OCC#N)/c1=C/c1ccccc1` [Compound 1827, (3Z,6Z)-3,6-Dibenzylidene-1-methyl-2-oxo-1,2,3,6-tetrahydro-5-pyrazinyloxyacetonitrile] stands 35%.
On the same count and under the same terms, under `COc1ccc(/C=c2\[nH]c(=O)/c(=C/c3ccccc3)n(CC(=O)N3CCCC3)c2=O)cc1` [Compound 1526, N,N-Tetramethylene-(3Z,6Z)-6-benzylidene-3-(4-methoxybenzylidene)-2,5-dioxo-1-piperazinylacetamide] stands 23.3%; under `C=CCOc1n/c(=C\c2ccccc2)c(=O)n(C)/c1=C\c1ccccc1` [Compound 1864, (3Z,6Z)-5-Allyloxy-3,6-dibenzylidene-1-methyl-3,6-dihydro-2-pyrazinone], 45%.
Regarding `Cn1c(=O)/c(=C/c2ccccc2)nc(OCCc2ccccc2)/c1=C/c1ccccc1` [Compound 1820, (3Z,6Z)-3,6-Dibenzylidene-1-methyl-5-(2-phenethoxy)-3,6-dihydro-2-pyrazinone], the Emax was determined as 34%.
With `CC=CCOc1n/c(=C\c2ccccc2)c(=O)n(C)/c1=C\c1ccccc1` [Compound 1861, (3Z,6Z)-3,6-Dibenzylidene-5-(2-butenyloxy)-1-methyl-3,6-dihydro-2-pyrazinone], the Emax turned out to be 46%.
For the molecule `CCOc1n/c(=C\c2ccccc2)c(=O)n(C)/c1=C\c1ccccc1` [Compound 1801, (3Z,6Z)-3,6-Dibenzylidene-5-ethoxy-1-methyl-3,6-dihydro-2-pyrazinone], the Emax was 40%.
Same read-out and setting: under `COc1ccc(/C=c2/c(=O)[nH]/c(=C\c3ccccc3)c(=O)n2CC(=O)N(C)C)cc1` [Compound 1614, N,N,-Dimethyl-(3Z,6Z)-3-benzylidene-6-(4-methoxybenzylidene)-2,5-dioxo-1-piperazinylacetamide] stands 25%; under `CC(=O)OCCCCOc1n/c(=C\c2ccccc2)c(=O)n(C)/c1=C\c1ccccc1` [Compound 1904, (3Z,6Z)-5-(4-Acetoxybutoxy)-3,6-dibenzylidene-1-methyl-3,6-dihydro-2-pyrazinone], 47%; under `Cn1c(=O)/c(=C/c2ccccc2)nc(OCN2C(=O)c3ccccc3C2=O)/c1=C/c1ccccc1` [Compound 1905, (3Z,6Z)-3,6-Dibenzylidene-1-methyl-5-phthalimidomethoxy-3,6-dihydro-2-pyrazinone], 29%.
Still for that read-out and setting: for `Cn1c(=O)/c(=C/c2ccccc2)n(CCBr)c(=O)/c1=C/c1ccccc1` [Compound 1803, (3Z,6Z)-3,6-Dibenzylidene-1-(2-bromoethyl)-4-methyl-2,5-piperazinedione] the value was 50%.
As to `COc1n/c(=C\c2ccccc2)c(=O)n(C)/c1=C\c1ccccc1` [Compound 1771], the Emax worked out at 60%.

Staying with this data set, now noted: Mus musculus, DNR 2 μM, 37° C., 1 hr.
`CC(=O)OCCOc1n/c(=C\c2ccccc2)c(=O)n(C)/c1=C\c1ccccc1` [Compound 1818, (3Z,6Z)-5-(2-Acetoxyethoxy)-3,6-dibenzylidene-1-methyl-3,6-dihydro-2-pyrazinone] gave a pIC50 of 5.15.
As to `CC(C)Cn1c(=O)/c(=C/c2ccccc2)n(C)c(=O)/c1=C/c1ccccc1` [Compound 1857, (3Z,6Z)-3,6-Dibenzylidene-1-isobutyl-4-methyl-2,5-piperazinedione], the pIC50 was 5.00.
In the case of `Cn1c(=O)/c(=C/c2ccccc2)n(Cc2ccc([N+](=O)[O-])cc2)c(=O)/c1=C/c1ccccc1` [Compound 1939, (3Z,6Z)-3,6-Dibenzylidene-1-methyl-4-(4-nitrobenzylidene)-2,5-piperazinedione], the pIC50 was 5.40.
In turn, `Cn1c(=O)/c(=C/c2ccccc2)nc(OCC=CCBr)/c1=C/c1ccccc1` [Compound 1859, (3Z,6Z)-3,6-Dibenzylidene-5-(4-bromo-2-butenyloxy)-1-methyl-3,6-dihydro-2-pyrazinone] had a pIC50 of 4.82.
The same measure, in the same setting: under `CC=CCn1c(=O)/c(=C/c2ccccc2)n(C)c(=O)/c1=C/c1ccccc1` [Compound 1862, (3Z,6Z)-3,6-Dibenzylidene-1-(but-2-enyl)-4-methyl-2,5-piperazinedione] stands 5.10; under `Cn1c(=O)/c(=C/c2ccccc2)nc(OCCCCN2C(=O)c3ccccc3C2=O)/c1=C/c1ccccc1` [Compound 1903, (3Z,6Z)-3,6-Dibenzylidene-1-methyl-5-(4-phthalimidobutoxy)-3,6-dihydro-2-pyrazinone], 5.05; under `Cn1c(=O)/c(=C/c2ccccc2)n(CC#N)c(=O)/c1=C/c1ccccc1` [Compound 1858, ((3Z,6Z)-3,6-Dibenzylidene-4-methyl-2,5-dioxo-1-piperazinyl)acetonitrile], 4.22.
Molecule `Cn1c(=O)/c(=C/c2ccccc2)n(CCc2ccccc2)c(=O)/c1=C/c1ccccc1` [Compound 1856, (3Z,6Z)-3,6-Dibenzylidene-4-methyl-1-phenethyl-2,5-piperazinedione] gave a pIC50 of 4.82.
For `COc1ccc(/C=c2/c(=O)n(Cc3ccccc3)/c(=C\c3c(Cl)cccc3Cl)c(=O)n2C)cc1` [Compound 1878, (3Z,6Z)-1-Benzyl-6-(2,6-dichlorobenzylidene)-3-(4-methoxybenzylidene)-4-methyl-2,5-piperazinedione], the pIC50 was 5.30.
Regarding `COc1ccc(/C=c2/c(=O)n(C)/c(=C\c3ccccc3[N+](=O)[O-])c(=O)n2Cc2ccccc2)cc1` [Compound 1879, (3Z,6Z)-1-Benzyl-6-(4-methoxybenzylidene)-4-methyl-3-(2-nitrobenzylidene)-2,5-piperazinedione], the pIC50 was 5.70.
For the molecule `Cn1c(=O)/c(=C/c2ccccc2)n(CCO)c(=O)/c1=C/c1ccccc1` [Compound 1854, (3Z,6Z)-3,6-Dibenzylidene-1-(2-hydroxyethyl)-4-methyl-2,5-piperazinedione], the pIC50 is 4.46.
In turn, `Cn1c(=O)/c(=C/c2ccccc2)n(Cc2cccc([N+](=O)[O-])c2)c(=O)/c1=C/c1ccccc1` [Compound 1936, (3Z,6Z)-3,6-Dibenzylidene-1-methyl-4-(3-nitrobenzylidene)-2,5-piperazinedione] gave a pIC50 of 5.70.
The same measure, in the same setting: under `Cn1c(=O)/c(=C/c2ccccc2)nc(OCCN2C(=O)c3ccccc3C2=O)/c1=C/c1ccccc1` [Compound 1902, (3Z,6Z)-3,6-Dibenzylidene-1-methyl-5-(2-phthalimidoethoxy)-3,6-dihydro-2-pyrazinone] stands 4.96; under `Cn1c(=O)/c(=C/c2ccccc2)nc(OCc2ccncc2)/c1=C/c1ccccc1` [Compound 1901, (3Z,6Z)-3,6-Dibenzylidene-1-methyl-5-(4-pyridyl)methoxy-3,6-dihydro-2-pyrazinone], 4.92.
On the same count and under the same terms, under `Cn1c(=O)/c(=C/c2ccccc2)n(CCBr)c(=O)/c1=C/c1ccccc1` [Compound 1803, (3Z,6Z)-3,6-Dibenzylidene-1-(2-bromoethyl)-4-methyl-2,5-piperazinedione] stands 4.10; under `COc1n/c(=C\c2ccccc2)c(=O)n(C)/c1=C\c1ccccc1` [Compound 1771], 4.15.
For the molecule `Cn1c(=O)/c(=C/c2ccccc2)n(CC=CCBr)c(=O)/c1=C/c1ccccc1` [Compound 1860], the pIC50 is 5.00.
The same measure, in the same setting: under `CN(C)CCCOc1n/c(=C\c2ccccc2)c(=O)n(C)/c1=C\c1ccccc1` [Compound 1900, (3Z,6Z)-3,6-Dibenzylidene-5-(3-dimethylaminopropoxy)-1-methyl-3,6-dihydro-2-pyrazinone] stands 5.52.
On to `Cn1c(=O)/c(=C/c2ccccc2)nc(OCCO)/c1=C/c1ccccc1` [Compound 1863, (3Z,6Z)-3,6-Dibenzylidene-5-(2-hydroxyethoxy)-1-methyl-3,6-dihydro-2-pyrazinone], for which the pIC50 was 5.00.

The next data set deals with AR 1.0 cells. Description: Proliferation assay with and without fixed concentration of doxorubicin (sulphorhodamine B). The data set is classed as cell-based, mouse. The conditions noted are these: Mus musculus, 96 h; compound alone, four days; read-out: COMPOUND TOXICITY (IC50). An excerpt:
Compounds of formula A were examined for their ability to potentiate the toxicity of doxorubicin in AR 1.0 cells.
With `CC(=O)OCCOc1n/c(=C\c2ccccc2)c(=O)n(C)/c1=C\c1ccccc1` [Compound 1818, (3Z,6Z)-5-(2-Acetoxyethoxy)-3,6-dibenzylidene-1-methyl-3,6-dihydro-2-pyrazinone], the pIC50 is 5.82.

The data set is the same for the next values; noted with them: cytotoxic agent 0.50 μg/ml, four days; 5760 min; read-out: TOXICITY WITH CYTOTOXIC AGENT (IC 50).
For `CC(=O)OCCOc1n/c(=C\c2ccccc2)c(=O)n(C)/c1=C\c1ccccc1` [Compound 1818, (3Z,6Z)-5-(2-Acetoxyethoxy)-3,6-dibenzylidene-1-methyl-3,6-dihydro-2-pyrazinone], the pIC50 was 6.10.

Staying with this data set, now noted: fixed concentration 0.5-1 μM.
Turning to `COc1cccc2c1C(=O)c1c(O)c3c(c(O)c1C2=O)C[C@@](O)(C(=O)CO)C[C@@H]3O[C@H]1C[C@H](N)[C@H](O)[C@H](C)O1` [doxorubicin, reference compound], the “toxicity of doxorubicin alone to AR 1.0 cells” value is on record as “non-toxic”.

The record behind these values is patent US5852018A, “Pharmaceutical piperazine compounds” (Xenova Limited, priority 1994, dated 1998).
